Structures are written as SMILES. Converted amounts (≈) assume the structure as drawn. Where a SMILES comes first, the peptide text is derived from it. Some results are limits rather than exact numbers.

The text below walks through data of PMC9284121, “Florfenicol-Polyarginine Conjugates Exhibit Promising Antibacterial Activity Against Resistant Strains” (Frontiers in Chemistry, 2022).

Holding throughout (assay): microbe, parasite or virus in culture
Assay [1] deals with E. coli clinical strain 2018XJ105. Format: cell-based, Escherichia coli. To be noted: clinical strain 2018XJ105. As to the method: (§1) All the florfenicol-polyarginine conjugates were tested against Gram-positive and Gram-negative bacteria, including MRSA (ATCC 43300), S. aureus (ATCC 25923), E. coli (ATCC 25922), clinical strains of E. coli (2019XJ06, 2019XJ25, 2018XJ108, 2018XJ105, 2018XJ30) and clinical strains of florfenicol resistant E. coli (2017XJ30, 2019XJ20).
(§2) Gram-negative E. coli (ATCC 25922), clinical strains of E. coli (2019XJ06, 2019XJ25, 2018XJ108, 2018XJ105, 2018XJ30) and clinical strains of florfenicol resistant E. coli (2017XJ30, 2019XJ20) and Gram-positive MRSA (ATCC 43300) and S. aureus (ATCC 25923) were maintained in 50% glycerol at −80°C up to the time of use. The bacterial strains were cultured in Muller-Hinton broth (Guangdong Huan Kai Microbial Sci. &Tech. Co., Ltd. in China) media. Mueller-Hinton agar (Guangdong Huan Kai Microbial Sci. & Tech. Co., Ltd. in China) was used as growth medium in solid media.
(§3) CLSI guidelines were followed for determining MICs of all florfenicol-polyarginine conjugates by the broth microdilution method. The required bacterial (E. coli, S. aureus and MRSA) single colony was inoculated into Muller-Hinton broth (MHB) and cultured for 4–6 h. And then, the bacteria were adjusted to 10^6 CFU/ml in cultures. All compounds were prepared into a stock solution at a concentration of 0.1 mol/L with DMSO. The stock solutions were then diluted to required concentration (100, 50, 25, 12.5, 6.25, 3.125, 1.56, 0.78, 0.39 μmol/L) with MHB media. Subsequently, a 96 well plate was filled with these dilutions and 10^6 CFU/ml bacterial suspension. The diluted compounds of different concentrations (100 µl) were first added to 96 well plate, and then 100 µl bacterial dilutions (10^6 CFU/ml) was added. The negative and positive controls were 200 µl of MHB media and 100 µl of bacterial suspension combined with 100 µl of MHB media, respectively. The experiment of each compound was repeated three times, and each experiment was at least twice repeated. The 96 well plates were incubated at 37°C for 16–24 h. MIC indicated antibacterial activity. Florfenicol was used as a control drug.

For assay [2], the system named is E. coli clinical strain 2018XJ108. In kind it is cell-based, Escherichia coli. The settings on record: clinical strain 2018XJ108. The procedure: as §1, §2, §3
Assay [3] deals with E. coli clinical strain 2018XJ30. In kind it is cell-based, Escherichia coli. The settings on record: clinical strain 2018XJ30. The procedure: as §1, §2, §3
Assay [4] relates to E. coli clinical strain 2019XJ06. In kind it is cell-based, Escherichia coli. To be noted: clinical strain 2019XJ06. As to the method:
as §1, §2, §3

The subject of assay [5] is E. coli clinical strain 2019XJ25. In kind it is cell-based, Escherichia coli. The settings on record: clinical strain 2019XJ25. The procedure:
as §1, §2, §3

The test system of the next assay is E.coli (ATCC 25922). In kind it is cell-based, Escherichia coli. To be noted: ATCC 25922. The procedure:
as §1, §2, §3

Assay [6] deals with florfenicol resistant E. coli clinical strain 2017XJ30. Format: cell-based, Escherichia coli. The settings on record: florfenicol resistant clinical strain 2017XJ30. The procedure:
as §1, §2, §3

The test system of assay [7] is florfenicol resistant E. coli clinical strain 2019XJ20. Format: cell-based, Escherichia coli. To be noted: florfenicol resistant clinical strain 2019XJ20. The procedure: as §1, §2, §3
The subject of another assay is S. aureus (ATCC 292130). In kind it is cell-based, Staphylococcus aureus. To be noted: ATCC 292130.
For another assay, the system named is MRSA (ATCC 43300). In kind it is cell-based, methicillin-resistant S. aureus. To be noted: ATCC 43300. As to the method: as §1, §2, §3
Assay [8] relates to 10 strains tested (E. coli, S. aureus, MRSA, clinical E. coli strains). In kind it is cell-based. As to the method:
as §1, §2, §3

As for `N=C(N)NCCC[C@H](NC(=O)[C@H](CCCNC(=N)N)NC(=O)[C@H](CCCNC(=N)N)NC(=O)[C@H](CCCNC(=N)N)NC(=O)[C@H](CCCNC(=N)N)NC(=O)[C@H](CCCNC(=N)N)NC(=O)[C@H](CCCNC(=N)N)NC(=O)[C@@H](N)CCCNC(=N)N)C(N)=O` [Compound D6], the MIC (in assay [1]; in assay [2]; in [3]; in [4]; in assay [5]; with E.coli (ATCC 25922)) was 50 µM (≈ 63.3 µg/mL) each time. Also, the MIC in assay [6] was 50 µM (≈ 63.3 µg/mL); in assay [7], 50 µM (≈ 63.3 µg/mL); against S. aureus (ATCC 292130), 25 µM (≈ 31.7 µg/mL); in the assay on MRSA (ATCC 43300), 25 µM (≈ 31.7 µg/mL); in [8], 25 to 100 µM.
For `N=C(N)NCCC[C@H](N)C(N)=O` [Compound D2], the MIC (in assay [1]; in assay [2]; in [3]; in assay [4]; in assay [5]; against E.coli (ATCC 25922)) was greater than 100 µM each time. The MIC (in [6]; in assay [7]; in the assay on S. aureus (ATCC 292130); in the assay on MRSA (ATCC 43300)) was greater than 100 µM each time.
`COC(=O)[C@H](CCCNC(=N)N)NC(=O)CCCCC(=O)O[C@H](c1ccc(S(C)(=O)=O)cc1)[C@@H](CF)NC(=O)C(Cl)Cl` [Compound E13]: the MIC (in assay [1]; in assay [2]; in assay [3]; in assay [4]; in assay [5]; against E.coli (ATCC 25922)) was greater than 100 µM each time. Besides, the MIC (in assay [6]; in assay [7]; with S. aureus (ATCC 292130); with MRSA (ATCC 43300)) was greater than 100 µM in each case.
With `COC(=O)[C@H](CCCNC(=N)N)NC(=O)CCC(=O)O[C@H](c1ccc(S(C)(=O)=O)cc1)[C@@H](CF)NC(=O)C(Cl)Cl` [Compound E1], the MIC (in assay [1]; in assay [2]; in assay [3]; in assay [4]; in assay [5]; in the assay on E.coli (ATCC 25922)) was 25 µM (≈ 15.7 µg/mL) throughout. Also, the MIC in [6] is greater than 100 µM; in [7], greater than 100 µM; against S. aureus (ATCC 292130) it was 50 µM (≈ 31.4 µg/mL); against MRSA (ATCC 43300), 50 µM (≈ 31.4 µg/mL).
Regarding `CS(=O)(=O)c1ccc([C@@H](OC(=O)CCC(=O)N[C@@H](CCCNC(=N)N)C(N)=O)[C@@H](CF)NC(=O)C(Cl)Cl)cc1` [Compound E2], the MIC (in [1]; in [2]; in [3]; in [4]; in assay [5]; in the assay with E.coli (ATCC 25922)) was 25 µM (≈ 15.3 µg/mL) in each case. The MIC in [6] is greater than 100 µM; in assay [7], greater than 100 µM; with S. aureus (ATCC 292130) it was 25 µM (≈ 15.3 µg/mL); against MRSA (ATCC 43300), 25 µM (≈ 15.3 µg/mL).
`CS(=O)(=O)c1ccc([C@@H](OC(=O)CCCCC(=O)N[C@@H](CCCNC(=N)N)C(N)=O)[C@@H](CF)NC(=O)C(Cl)Cl)cc1` [Compound E14]: the MIC (in assay [1]; in [2]; in assay [3]; in assay [4]; in assay [5]; in the assay on E.coli (ATCC 25922)) was greater than 100 µM in each case. The MIC (in assay [6]; in assay [7]; against S. aureus (ATCC 292130); against MRSA (ATCC 43300)) was greater than 100 µM throughout.
With `N=C(N)NCCC[C@H](NC(=O)[C@H](CCCNC(=N)N)NC(=O)[C@H](CCCNC(=N)N)NC(=O)[C@@H](N)CCCNC(=N)N)C(N)=O` [Compound D4] (H-RRRR-NH2), the MIC (in [1]; in assay [2]; in assay [3]; in [4]; in [5]; against E.coli (ATCC 25922)) was greater than 100 µM each time. Also, the MIC (in assay [6]; in [7]; in the assay with S. aureus (ATCC 292130); in the assay on MRSA (ATCC 43300)) was greater than 100 µM each time.
As for `COC(=O)[C@H](CCCNC(=N)N)NC(=O)CCCC(=O)O[C@H](c1ccc(S(C)(=O)=O)cc1)[C@@H](CF)NC(=O)C(Cl)Cl` [Compound E7], the MIC (in assay [1]; in assay [2]; in assay [3]; in [4]; in assay [5]; against E.coli (ATCC 25922)) was greater than 100 µM throughout. Besides, the MIC (in assay [6]; in assay [7]; against S. aureus (ATCC 292130); against MRSA (ATCC 43300)) was greater than 100 µM throughout.
Take `N=C(N)NCCC[C@H](NC(=O)[C@@H](N)CCCNC(=N)N)C(N)=O` [Compound D3] (H-Arg-Arg-NH2): the MIC (in assay [1]; in [2]; in assay [3]; in [4]; in assay [5]; in the assay with E.coli (ATCC 25922)) was greater than 100 µM each time. The MIC (in assay [6]; in [7]; in the assay with S. aureus (ATCC 292130); in the assay with MRSA (ATCC 43300)) was greater than 100 µM each time.
With `COC(=O)[C@@H](N)CCCNC(=N)N` [Compound D1], the MIC (in assay [1]; in [2]; in [3]; in [4]; in assay [5]; against E.coli (ATCC 25922)) was greater than 100 µM in each case. The MIC (in assay [6]; in assay [7]; in the assay with S. aureus (ATCC 292130); in the assay on MRSA (ATCC 43300)) was greater than 100 µM throughout.
`CS(=O)(=O)c1ccc([C@@H](OC(=O)CCCC(=O)N[C@@H](CCCNC(=N)N)C(N)=O)[C@@H](CF)NC(=O)C(Cl)Cl)cc1` [Compound E8]: the MIC (in assay [1]; in assay [2]; in [3]; in [4]; in assay [5]; with E.coli (ATCC 25922)) was greater than 100 µM throughout. Further, the MIC (in [6]; in assay [7]; against S. aureus (ATCC 292130); with MRSA (ATCC 43300)) was greater than 100 µM in each case.
